Reference: ChEMBL document CHEMBL3603829, “Metronidazole hydrazone conjugates: Design, synthesis, antiamoebic and molecular docking studies” (Bioorg Med Chem Lett, 2015)

Assays:
Entamoeba histolytica = assay: Antiamoebic activity against trophozoite stage of Entamoeba histolytica HM-1:IMSS after 72 hrs by microdilution method; type: functional, organism-based
[1] = Cytotoxicity against human HeLa cells assessed as cell viability at 208 nM after 48 hrs by MTT assay relative to control; type: cell-based; details: read-out: Activity
[2] = Cytotoxicity against human HeLa cells assessed as cell viability at 208 nM after 72 hrs by MTT assay relative to control; type: cell-based; details: read-out: Activity
[3] = Cytotoxicity against human HeLa cells assessed as cell viability at 208 nM after 24 hrs by MTT assay relative to control; type: cell-based; details: read-out: Activity
[4] = Cytotoxicity against human HeLa cells assessed as cell viability at 387 nM after 24 hrs by MTT assay relative to control; type: cell-based; details: read-out: Activity
[5] = Cytotoxicity against human HeLa cells assessed as cell viability at 387 nM after 48 hrs by MTT assay relative to control; type: cell-based; details: read-out: Activity
[6] = Cytotoxicity against human HeLa cells assessed as cell viability at 387 nM after 72 hrs by MTT assay relative to control; type: cell-based; details: read-out: Activity
[7] = Cytotoxicity against human HeLa cells assessed as cell viability at 360 nM after 72 hrs by MTT assay relative to control; type: cell-based; details: read-out: Activity
[8] = Cytotoxicity against human HeLa cells assessed as cell viability at 360 nM after 48 hrs by MTT assay relative to control; type: cell-based; details: read-out: Activity
[9] = Cytotoxicity against human HeLa cells assessed as cell viability at 360 nM after 24 hrs by MTT assay relative to control; type: cell-based; details: read-out: Activity
[10] = Cytotoxicity against human HeLa cells assessed as cell viability at 490 nM after 24 hrs by MTT assay relative to control; type: cell-based; details: read-out: Activity
[11] = Cytotoxicity against human HeLa cells assessed as cell viability at 490 nM after 48 hrs by MTT assay relative to control; type: cell-based; details: read-out: Activity
[12] = Cytotoxicity against human HeLa cells assessed as cell viability at 490 nM after 72 hrs by MTT assay relative to control; type: cell-based; details: read-out: Activity
[13] = Cytotoxicity against human HeLa cells assessed as cell viability at 435 nM after 48 hrs by MTT assay relative to control; type: cell-based; details: read-out: Activity
[14] = Cytotoxicity against human HeLa cells assessed as cell viability at 435 nM after 24 hrs by MTT assay relative to control; type: cell-based; details: read-out: Activity
[15] = Cytotoxicity against human HeLa cells assessed as cell viability at 435 nM after 72 hrs by MTT assay relative to control; type: cell-based; details: read-out: Activity
[16] = Cytotoxicity against human HeLa cells assessed as cell viability at 370 nM after 48 hrs by MTT assay relative to control; type: cell-based; details: read-out: Activity
[17] = Cytotoxicity against human HeLa cells assessed as cell viability at 370 nM after 24 hrs by MTT assay relative to control; type: cell-based; details: read-out: Activity
[18] = Cytotoxicity against human HeLa cells assessed as cell viability at 370 nM after 72 hrs by MTT assay relative to control; type: cell-based; details: read-out: Activity

For Cc1ncc([N+](=O)[O-])n1CCOc1ccc(C=O)cc1, the IC50 (Entamoeba histolytica) was 11500 nM.

Cc1ncc([N+](=O)[O-])n1CCOc1ccc(/C=N/NC(=O)c2ccccc2)cc1 showed an IC50 (Entamoeba histolytica) of 2020 nM.

Cc1ncc([N+](=O)[O-])n1CCOc1ccc(/C=N/NC(=O)c2ccc(Cl)cc2)cc1 showed an IC50 (Entamoeba histolytica) of 200 nM, a viability at 48 h, 0.208 µM [1] of 93.7% and a viability at 72 h, 0.208 µM [2] of 65.9%. For the same compound, the viability at 24 h, 0.208 µM [3] was 85.9%.

For Cc1ncc([N+](=O)[O-])n1CCOc1ccc(/C=N/NC(=O)c2ccc(O)cc2)cc1, the IC50 (Entamoeba histolytica) was 380 nM, the viability at 24 h, 0.387 µM [4] was 81.9% and the viability at 48 h, 0.387 µM [5] was 87.1%. It also gave a viability at 72 h, 0.387 µM [6] of 54.4%.

With Cc1ncc([N+](=O)[O-])n1CCOc1ccc(/C=N/NC(=O)c2ccc([N+](=O)[O-])cc2)cc1 the IC50 (Entamoeba histolytica) was 360 nM, the viability at 72 h, 0.36 µM [7] was 68.3% and the viability at 48 h, 0.36 µM [8] was 88.9%. For the same compound, the viability at 24 h, 0.36 µM [9] was 78.5%.

Compound COc1ccc(C(=O)N/N=C/c2ccc(OCCn3c([N+](=O)[O-])cnc3C)cc2)cc1 has an IC50 (Entamoeba histolytica) of 7120 nM.

Compound Cc1ccc(C(=O)N/N=C/c2ccc(OCCn3c([N+](=O)[O-])cnc3C)cc2)cc1 has a viability at 24 h, 0.49 µM [10] of 66.2%, an IC50 (Entamoeba histolytica) of 490 nM and a viability at 48 h, 0.49 µM [11] of 83.8%. For the same compound, the viability at 72 h, 0.49 µM [12] was 50.8%.

In the case of Cc1ncc([N+](=O)[O-])n1CCOc1ccc(/C=N/NC(=O)c2ccc(N)cc2)cc1, the IC50 (Entamoeba histolytica) is reported as 430 nM, the viability at 48 h, 0.435 µM [13] is reported as 80.1% and the viability at 24 h, 0.435 µM [14] is reported as 79.8%. For the same compound, the viability at 72 h, 0.435 µM [15] was 60.3%.

Work on Cc1ncc([N+](=O)[O-])n1CCOc1ccc(/C=N/NC(=O)c2ccc(C(C)(C)C)cc2)cc1 yielded an IC50 (Entamoeba histolytica) of 1980 nM.

For Cc1cc(C)cc(C(=O)N/N=C/c2ccc(OCCn3c([N+](=O)[O-])cnc3C)cc2)c1, the IC50 (Entamoeba histolytica) was 5960 nM.

COc1cc(OC)cc(C(=O)N/N=C/c2ccc(OCCn3c([N+](=O)[O-])cnc3C)cc2)c1 gave an IC50 (Entamoeba histolytica) of 4390 nM.

Work on Cc1ncc([N+](=O)[O-])n1CCOc1ccc(/C=N/NC(=O)c2cc(O)cc(O)c2)cc1 yielded a viability at 48 h, 0.37 µM [16] of 92.1%, an IC50 (Entamoeba histolytica) of 370 nM and a viability at 24 h, 0.37 µM [17] of 93.4%. For the same compound, the viability at 72 h, 0.37 µM [18] was 59.8%.

In the case of COc1cc(C(=O)N/N=C/c2ccc(OCCn3c([N+](=O)[O-])cnc3C)cc2)cc(OC)c1OC, the IC50 (Entamoeba histolytica) is reported as 2600 nM.
